In patent US7109296B2, “Human 5-HT3-C protein” (Ortho-McNeil Pharmaceutical, Inc., priority 1999, dated 2006):

Tests used:
[1] = biological target: T1, 5-HT3-C together with nicotinic ACh receptor a6 subunit (Homo sapiens, UniProt Q15825+Q8WXA8); assay: Two-electrode voltage clamp, oocytes injected with 5-HT3-C together with nicotinic ACh receptor α6 subunit; assay type: cell-based; conditions: 10 μM; eight days after injection; 5-HT3-C 0.67 ng, a6 1 ng/oocyte
T1 construct: Characterization of the Function of Protein Encoded by p5HT3CR in Xenopus oocvtes; expressed in transfected cells; host or cells: Xenopus laevis oocytes injected with cRNA
Procedure: Characterization of the Function of Protein Encoded by p5HT3CR in Xenopus oocvtes Xenopus laevis oocytes were prepared and injected using standard methods previously described and known in the art (Fraser et al., 1993). Ovarian lobes from adult female Xenopus laevis (Nasco, Fort Atkinson, Wis.) were teased apart, rinsed several times in nominally Ca-free saline containing (in mM): NaCl 82.5, KCl 2.5, MgCl2 1, HEPES 5, adjusted to pH 7.0 with NaOH(OR-2), and gently shaken in OR-2 containing 0.2% collagenase Type 1 (ICN Biomedicals, Aurora, Ohio) for 2–5 hours. When approximately 50% of the follicular layers were removed, Stage V and VI oocytes were selected and rinsed in media consisting of 75% OR-2 and 25% ND-96. The ND-96 contained (in mM): NaCl 100, KCl 2, MgCl2 1, CaCl2 1.8, HEPES 5, Na pyruvate 2.5, gentamicin (50 ug/ml), adjusted to pH 7.0 with NaOH. […] For in vitro transcription, pGEM HE (Liman et al., 1992) containing human 5-HT3-A (Genbank D49394) or 5-HT3-C cDNA was linearized with NheI and transcribed with T7 RNA polymerase (Stratagene) in the presence of the cap analog m7G(5′)ppp(5′)G. The synthesized cRNA was purified with a Sephadex G-50 spin column. Oocytes were injected with 50 nl of the human serotonin 5-HT3-A receptor with or without the 5-HT3-C RNA (0.02 and 0.002–0.2 ng each) or other channel or receptor subunit. Control oocytes were injected with 50 nl of water. Oocytes were incubated for 2–14 days in ND-96 before analysis for expression of the human 5-HT3-C. Incubations and collagenase digestion were carried out at room temperature. Injected oocytes were maintained in 48 well cell culture clusters (Costar, Cambridge, Mass.) at 18° C. Whole cell agonist-induced currents were measured 1–14 days after injection with a conventional two-electrode voltage clamp (GeneClamp500, Axon Instruments, Foster City, Calif.) using standard methods previously described and known in the art (Dascal, 1987). The microelectrodes were filled with 3 M KCl, which had resistances of 1 and 2 MΩ. […]

[2] = biological target: T2, 5-HT3-B and 5-HT3-C (Homo sapiens, UniProt O95264+Q8WXA8); assay: Two-electrode voltage clamp, oocytes co-injected with 5-HT3-B and 5-HT3-C; assay type: cell-based; conditions: 10 μM; 5-HT3-B 3.3 ng, 5-HT3-C 3.35 ng/oocyte
T2 construct: Characterization of the Function of Protein Encoded by p5HT3CR in Xenopus oocvtes; expressed in transfected cells; host or cells: Xenopus laevis oocytes co-injected with cRNAs
T2 sequence (O95264 22-441): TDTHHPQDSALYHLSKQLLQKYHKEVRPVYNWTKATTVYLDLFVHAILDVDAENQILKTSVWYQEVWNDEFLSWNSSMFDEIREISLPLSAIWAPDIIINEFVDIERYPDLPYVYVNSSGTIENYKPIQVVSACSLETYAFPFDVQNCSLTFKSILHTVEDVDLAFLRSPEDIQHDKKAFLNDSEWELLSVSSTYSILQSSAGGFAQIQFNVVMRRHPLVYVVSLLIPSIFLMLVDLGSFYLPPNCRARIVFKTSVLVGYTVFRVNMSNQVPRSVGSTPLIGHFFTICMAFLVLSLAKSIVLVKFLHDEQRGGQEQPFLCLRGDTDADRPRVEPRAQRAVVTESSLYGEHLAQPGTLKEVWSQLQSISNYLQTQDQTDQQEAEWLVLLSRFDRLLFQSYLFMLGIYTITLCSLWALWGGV
T2 sequence (Q8WXA8 28-447): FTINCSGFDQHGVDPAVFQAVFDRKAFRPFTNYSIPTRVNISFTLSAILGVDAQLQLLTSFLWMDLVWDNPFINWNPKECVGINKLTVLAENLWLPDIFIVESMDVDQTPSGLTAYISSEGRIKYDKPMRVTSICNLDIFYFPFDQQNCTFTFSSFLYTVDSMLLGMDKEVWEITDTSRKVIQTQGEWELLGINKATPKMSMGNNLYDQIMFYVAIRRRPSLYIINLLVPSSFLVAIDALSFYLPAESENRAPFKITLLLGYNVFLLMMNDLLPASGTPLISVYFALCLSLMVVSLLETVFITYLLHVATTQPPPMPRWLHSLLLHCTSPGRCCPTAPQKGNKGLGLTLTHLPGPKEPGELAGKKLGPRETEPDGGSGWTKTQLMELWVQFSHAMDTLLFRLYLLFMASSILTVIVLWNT
Procedure: Characterization of the Function of Protein Encoded by p5HT3CR in Xenopus oocvtes Xenopus laevis oocytes were prepared and injected using standard methods previously described and known in the art (Fraser et al., 1993). Ovarian lobes from adult female Xenopus laevis (Nasco, Fort Atkinson, Wis.) were teased apart, rinsed several times in nominally Ca-free saline containing (in mM): NaCl 82.5, KCl 2.5, MgCl2 1, HEPES 5, adjusted to pH 7.0 with NaOH(OR-2), and gently shaken in OR-2 containing 0.2% collagenase Type 1 (ICN Biomedicals, Aurora, Ohio) for 2–5 hours. When approximately 50% of the follicular layers were removed, Stage V and VI oocytes were selected and rinsed in media consisting of 75% OR-2 and 25% ND-96. The ND-96 contained (in mM): NaCl 100, KCl 2, MgCl2 1, CaCl2 1.8, HEPES 5, Na pyruvate 2.5, gentamicin (50 ug/ml), adjusted to pH 7.0 with NaOH. […] For in vitro transcription, pGEM HE (Liman et al., 1992) containing human 5-HT3-A (Genbank D49394) or 5-HT3-C cDNA was linearized with NheI and transcribed with T7 RNA polymerase (Stratagene) in the presence of the cap analog m7G(5′)ppp(5′)G. The synthesized cRNA was purified with a Sephadex G-50 spin column. […] Control oocytes were injected with 50 nl of water. Oocytes were incubated for 2–14 days in ND-96 before analysis for expression of the human 5-HT3-C. Incubations and collagenase digestion were carried out at room temperature. Injected oocytes were maintained in 48 well cell culture clusters (Costar, Cambridge, Mass.) at 18° C. Whole cell agonist-induced currents were measured 1–14 days after injection with a conventional two-electrode voltage clamp (GeneClamp500, Axon Instruments, Foster City, Calif.) using standard methods previously described and known in the art (Dascal, 1987). The microelectrodes were filled with 3 M KCl, which had resistances of 1 and 2 MΩ. Cells were continuously perfused with ND96 at 10 ml/min at room temperature unless indicated. Membrane voltage was clamped at −70 mV unless indicated.

T1 sequence (Q15825 26-494, one chain of several): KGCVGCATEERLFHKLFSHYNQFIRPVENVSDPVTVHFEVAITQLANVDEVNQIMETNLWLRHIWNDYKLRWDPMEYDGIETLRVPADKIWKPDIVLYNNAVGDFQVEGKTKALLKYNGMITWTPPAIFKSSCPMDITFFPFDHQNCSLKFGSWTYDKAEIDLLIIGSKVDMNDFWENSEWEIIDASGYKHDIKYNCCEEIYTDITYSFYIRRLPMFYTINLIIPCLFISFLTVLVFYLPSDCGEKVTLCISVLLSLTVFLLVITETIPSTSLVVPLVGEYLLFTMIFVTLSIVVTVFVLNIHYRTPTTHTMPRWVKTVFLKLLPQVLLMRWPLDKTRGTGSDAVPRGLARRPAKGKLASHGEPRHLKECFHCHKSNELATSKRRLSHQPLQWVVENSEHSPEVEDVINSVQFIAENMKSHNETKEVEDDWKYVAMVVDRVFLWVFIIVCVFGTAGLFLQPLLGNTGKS

responsiveness of oocytes to agonist [1]: not responsive
responsiveness of oocytes to agonist [2]: unresponsive
SMILES: NCCc1c[nH]c2ccc(O)cc12 [5-HT, 5-hydroxytryptamine]
